The NIST ThermoML archive (doi:10.1016/j.jct.2017.05.001)

Experiment: wn = mass fraction of the nth substance listed
Conditions: Liquid; for mass density: Vibrating tube method

OCCN(CCO)CCO [triethanolamine] + O
mass density [kg/m3]
Conditions | w1 = 0.0992 | w1 = 0.2 | w1 = 0.2991 | w1 = 0.4
333.15 K, 130000 kPa | 1045.8 | 1059 | 1072.9 | 1088.3
333.15 K, 140000 kPa | 1049.1 | 1062.4 | 1076 | 1091.4
353.15 K, 100 kPa | 985.7 | 999.5 | 1013.6 | 1029.7
353.15 K, 500 kPa | 985.7 | 999.6 | 1013.7 | 1029.8
353.15 K, 1000 kPa | 985.9 | 999.8 | 1013.9 | 1030
353.15 K, 2000 kPa | 986.4 | 1000.1 | 1014.3 | 1030.4
353.15 K, 5000 kPa | 987.7 | 1001.5 | 1015.6 | 1031.7
353.15 K, 10000 kPa | 989.9 | 1003.7 | 1017.8 | 1033.9
353.15 K, 15000 kPa | 992.1 | 1005.8 | 1019.9 | 1035.8
353.15 K, 20000 kPa | 994.1 | 1007.8 | 1021.9 | 1037.9
353.15 K, 30000 kPa | 998.2 | 1011.9 | 1025.9 | 1041.9
353.15 K, 40000 kPa | 1002.4 | 1015.9 | 1029.9 | 1045.8
353.15 K, 50000 kPa | 1006.2 | 1019.8 | 1033.8 | 1049.5
353.15 K, 60000 kPa | 1010.2 | 1023.7 | 1037.6 | 1053.3
353.15 K, 70000 kPa | 1014 | 1027.4 | 1041.2 | 1056.9
353.15 K, 80000 kPa | 1017.6 | 1031.1 | 1044.8 | 1060.4
353.15 K, 90000 kPa | 1021.2 | 1034.5 | 1048.3 | 1063.8
353.15 K, 100000 kPa | 1024.8 | 1038.1 | 1051.8 | 1067.2
353.15 K, 110000 kPa | 1028.4 | 1041.5 | 1055.2 | 1070.5
353.15 K, 120000 kPa | 1031.8 | 1044.9 | 1058.5 | 1073.9
353.15 K, 130000 kPa | 1035.2 | 1048.2 | 1061.8 | 1077.1
353.15 K, 140000 kPa | 1038.4 | 1051.5 | 1065 | 1080.1
373.15 K, 100 kPa | 971.7 | 985.1 | 999.2 | 1014.6
373.15 K, 500 kPa | 971.9 | 985.3 | 999.3 | 1014.8
373.15 K, 1000 kPa | 972.2 | 985.5 | 999.6 | 1015
373.15 K, 2000 kPa | 972.6 | 986.1 | 1000.1 | 1015.5
373.15 K, 5000 kPa | 973.9 | 987.4 | 1001.5 | 1016.8
373.15 K, 10000 kPa | 976.3 | 989.7 | 1003.8 | 1019.1
373.15 K, 15000 kPa | 978.5 | 991.9 | 1006 | 1021.2
373.15 K, 20000 kPa | 980.6 | 994 | 1008.2 | 1023.4
373.15 K, 30000 kPa | 985.1 | 998.4 | 1012.5 | 1027.7
373.15 K, 40000 kPa | 989.4 | 1002.6 | 1016.8 | 1032
373.15 K, 50000 kPa | 993.4 | 1006.7 | 1020.7 | 1035.7
373.15 K, 60000 kPa | 997.4 | 1010.6 | 1024.6 | 1039.7
373.15 K, 70000 kPa | 1001.4 | 1014.5 | 1028.4 | 1043.5
373.15 K, 80000 kPa | 1005.3 | 1018.5 | 1032.4 | 1047.3
373.15 K, 90000 kPa | 1009.1 | 1022.1 | 1036 | 1050.8
373.15 K, 100000 kPa | 1012.7 | 1025.7 | 1039.5 | 1054.3
373.15 K, 110000 kPa | 1016.4 | 1029.4 | 1043.1 | 1057.9
373.15 K, 120000 kPa | 1019.9 | 1032.9 | 1046.8 | 1061.3
373.15 K, 130000 kPa | 1023.3 | 1036.2 | 1050.1 | 1064.6
373.15 K, 140000 kPa | 1026.8 | 1039.7 | 1053.4 | 1067.8
393.15 K, 100 kPa | 956.1 | 969.2 | 982.9 | 998.1
393.15 K, 500 kPa | 956.4 | 969.5 | 983.3 | 998.5
393.15 K, 1000 kPa | 956.6 | 969.7 | 983.5 | 998.6
393.15 K, 2000 kPa | 957.1 | 970.2 | 984 | 999.1
393.15 K, 5000 kPa | 958.6 | 971.7 | 985.5 | 1000.6
393.15 K, 10000 kPa | 961.1 | 974.2 | 988 | 1003.1
393.15 K, 15000 kPa | 963.4 | 976.5 | 990.3 | 1005.4
393.15 K, 20000 kPa | 965.9 | 978.9 | 992.7 | 1007.8
393.15 K, 30000 kPa | 970.4 | 983.5 | 997.3 | 1012.4
393.15 K, 40000 kPa | 974.9 | 988 | 1001.8 | 1016.7
393.15 K, 50000 kPa | 979.2 | 992.3 | 1006 | 1021
393.15 K, 60000 kPa | 983.5 | 996.5 | 1010.2 | 1025.2
393.15 K, 70000 kPa | 987.7 | 1000.7 | 1014.4 | 1029.3
393.15 K, 80000 kPa | 991.7 | 1004.6 | 1018.3 | 1033.1
393.15 K, 90000 kPa | 995.7 | 1008.6 | 1022.3 | 1037.1
393.15 K, 100000 kPa | 999.4 | 1012.3 | 1026.1 | 1040.7
393.15 K, 110000 kPa | 1003.3 | 1016.1 | 1029.8 | 1044.5
393.15 K, 120000 kPa | 1006.9 | 1019.8 | 1033.4 | 1048.1
393.15 K, 130000 kPa | 1010.4 | 1023.4 | 1036.9 | 1051.5
393.15 K, 140000 kPa | 1014.1 | 1026.9 | 1040.5 | 1055

viscosity [mPa·s]
Conditions | w1 = 0.0992 | w1 = 0.1 | w1 = 0.2 | w1 = 0.2991 | w1 = 0.3 | w1 = 0.4
353.15 K, 100 kPa, Concentric cylinders viscometry | – | 0.469 | 0.569 | – | 0.81 | 1.125
353.15 K, 100 kPa, Falling or rolling sphere viscometry | 0.4585 | – | 0.5805 | 0.8052 | – | 1.124
353.15 K, 5000 kPa, Falling or rolling sphere viscometry | 0.451 | – | 0.5825 | 0.7994 | – | 1.125
353.15 K, 10000 kPa, Falling or rolling sphere viscometry | 0.4541 | – | 0.5878 | 0.8046 | – | 1.136
353.15 K, 15000 kPa, Falling or rolling sphere viscometry | 0.4547 | – | 0.5898 | 0.811 | – | 1.146
353.15 K, 20000 kPa, Falling or rolling sphere viscometry | 0.4578 | – | 0.5937 | 0.8144 | – | 1.154
353.15 K, 25000 kPa, Falling or rolling sphere viscometry | 0.4595 | – | 0.5975 | 0.821 | – | 1.164
353.15 K, 30000 kPa, Falling or rolling sphere viscometry | 0.4619 | – | 0.6006 | 0.8266 | – | 1.173
353.15 K, 40000 kPa, Falling or rolling sphere viscometry | 0.466 | – | 0.6068 | 0.8374 | – | 1.193
353.15 K, 60000 kPa, Falling or rolling sphere viscometry | 0.4738 | – | 0.6185 | 0.8576 | – | 1.229
353.15 K, 80000 kPa, Falling or rolling sphere viscometry | 0.4813 | – | 0.6313 | 0.8785 | – | 1.266
353.15 K, 100000 kPa, Falling or rolling sphere viscometry | 0.4891 | – | 0.6459 | 0.9019 | – | 1.306
373.15 K, 5000 kPa, Falling or rolling sphere viscometry | 0.3584 | – | 0.444 | 0.5867 | – | 0.7909
373.15 K, 10000 kPa, Falling or rolling sphere viscometry | 0.356 | – | 0.4475 | 0.5894 | – | 0.8001
373.15 K, 15000 kPa, Falling or rolling sphere viscometry | 0.3581 | – | 0.451 | 0.5951 | – | 0.809
373.15 K, 20000 kPa, Falling or rolling sphere viscometry | 0.3595 | – | 0.4534 | 0.5996 | – | 0.819
373.15 K, 25000 kPa, Falling or rolling sphere viscometry | 0.3618 | – | 0.4562 | 0.6046 | – | 0.8242
373.15 K, 30000 kPa, Falling or rolling sphere viscometry | 0.3632 | – | 0.4601 | 0.6109 | – | 0.8363
373.15 K, 40000 kPa, Falling or rolling sphere viscometry | 0.3659 | – | 0.4638 | 0.6193 | – | 0.8525
373.15 K, 60000 kPa, Falling or rolling sphere viscometry | 0.3738 | – | 0.4753 | 0.6379 | – | 0.8789
373.15 K, 80000 kPa, Falling or rolling sphere viscometry | 0.3807 | – | 0.4864 | 0.655 | – | 0.9114
373.15 K, 100000 kPa, Falling or rolling sphere viscometry | 0.3871 | – | 0.4953 | 0.6721 | – | 0.9403
393.15 K, 5000 kPa, Falling or rolling sphere viscometry | 0.2913 | – | 0.3551 | 0.4515 | – | 0.5873
393.15 K, 10000 kPa, Falling or rolling sphere viscometry | 0.2912 | – | 0.3579 | 0.4583 | – | 0.5948
393.15 K, 15000 kPa, Falling or rolling sphere viscometry | 0.2933 | – | 0.3633 | 0.4629 | – | 0.6019
393.15 K, 20000 kPa, Falling or rolling sphere viscometry | 0.295 | – | 0.362 | 0.4675 | – | 0.609
393.15 K, 25000 kPa, Falling or rolling sphere viscometry | 0.2963 | – | 0.3674 | 0.4703 | – | 0.6136
393.15 K, 30000 kPa, Falling or rolling sphere viscometry | 0.2988 | – | 0.3659 | 0.4738 | – | 0.6246
393.15 K, 40000 kPa, Falling or rolling sphere viscometry | 0.3022 | – | 0.3704 | 0.4822 | – | 0.6362
393.15 K, 60000 kPa, Falling or rolling sphere viscometry | 0.308 | – | 0.3798 | 0.4973 | – | 0.6588
393.15 K, 80000 kPa, Falling or rolling sphere viscometry | 0.3138 | – | 0.3888 | 0.5121 | – | 0.6835
393.15 K, 100000 kPa, Falling or rolling sphere viscometry | 0.32 | – | 0.3982 | 0.5378 | – | 0.7054
